Data as given in patent US8076352B2, “Administration of carboline derivatives useful in the treatment of cancer and other diseases” (PTC Therapeutics, Inc., priority 2004, dated 2011).

Tested on: hypoxia-inducible endogenous VEGF expression in HeLa cells
Assay: Hypoxia-inducible endogenous VEGF expression, VEGF ELISA of conditioned media (dose-response EC50)
Format: cell-based
Conditions: HeLa cells, hypoxic conditions (1% O2)
Summary of the method: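 Secreted VEGF was quantified by ELISA against a per-assay standard curve after HeLa cells spent 24-48 h in 1% O2, 5% CO2, N2 balance with or without compound. Across a series of, e.g., seven concentrations, percentage inhibition (max 100%, min 0%) gave EC50 and CC50 values.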

| Compound | EC50 [µM] |
| --- | --- |
| CN(C)CCCOc1ccc(C2c3[nH]c4ccc(Cl)cc4c3CCN2C(=O)Oc2ccc(Br)cc2)cc1 (centres unmarked) [Compound 468] | 0.008 to 0.04 |

Same assay, conditions: Homo sapiens, HeLa cells under hypoxic conditions

| Compound | EC50 [µM] |
| --- | --- |
| CCNC(=O)N1CCc2c([nH]c3ccccc23)C1c1ccc(OC)cc1 (centres unmarked) [Compound 307] | > 1 |
| COCC(=O)N1CCc2c([nH]c3ccc(Br)cc23)C1c1ccccc1 (centres unmarked) [Compound 230] | > 1 |
| FC(F)(F)c1cccc(C2NCCc3c2[nH]c2ccc(Cl)cc32)c1 (centres unmarked) [Compound 299] | > 1 |
| CC(C)c1ccc(C2NCCc3c2[nH]c2ccc(Cl)cc32)cc1 (centres unmarked) [Compound 162] | 0.04 to 0.2 |
| CCOC(=O)N1CCc2c([nH]c3ccc(Cl)cc23)C1c1cccc(OC)c1 (centres unmarked) [Compound 107] | 0.008 to 0.04 |
| CCOC(=O)N1CCc2c([nH]c3ccc(Cl)cc23)C1c1ccc(C(C)C)cc1 (centres unmarked) [Compound 14] | < 0.008 |
| CC(C)NC(=O)N1CCc2c([nH]c3ccc(Br)cc23)C1c1cccc(Cl)c1 (centres unmarked) [Compound 199] | 0.2 to 1 |
| Clc1cccc(C2NCCc3c2[nH]c2ccc(Cl)cc32)c1 (centres unmarked) [Compound 198] | 0.2 to 1 |
| CC(C)OC(=O)N1CCc2c([nH]c3ccc(Cl)cc23)C1c1ccc(Cl)cc1 (centres unmarked) [Compound 40] | < 0.008 |
| COc1ccc2[nH]c3c(c2c1)CCNC3c1ccc(OCc2ccccc2)cc1 (centres unmarked) [Compound 285] | > 1 |
| CC(C)c1ccc(C2NCCc3c2[nH]c2ccc(Br)cc32)cc1 (centres unmarked) [Compound 112] | 0.008 to 0.04 |
| Clc1cccc(C2NCCc3c2[nH]c2ccc(Br)cc32)c1Cl (centres unmarked) [Compound 151] | 0.04 to 0.2 |
| CCOC(=O)N1CCc2c([nH]c3ccc(Cl)cc23)C1c1ccc([N+](=O)[O-])cc1 (centres unmarked) [#74] | 0.008 to 0.04 |
| COC(=O)N1CCc2c([nH]c3ccc(Cl)cc23)C1c1ccc(C#N)cc1 (centres unmarked) [Compound 118] | 0.008 to 0.04 |
| COCCNC(=S)N1CCc2c([nH]c3ccccc23)C1c1ccc(OC)cc1 (centres unmarked) [Compound 290] | > 1 |
| CCOC(=O)N1CCc2c([nH]c3ccc(Br)cc23)C1c1cccc(F)c1F (centres unmarked) [Compound 29] | < 0.008 |
| Clc1ccc2[nH]c3c(c2c1)CCN(Cc1ccccc1)C3c1ccccn1 (centres unmarked) [Compound 275] | > 1 |
| Fc1cccc(C2NCCc3c2[nH]c2ccc(Br)cc32)c1F (centres unmarked) [Compound 132] | 0.04 to 0.2 |

| Compound | EC50 [µM] |
| --- | --- |
| Brc1ccc2[nH]c3c(c2c1)CCNC3c1ccccc1 (centres unmarked) [Compound 174] | 0.2 to 1 |
| COc1ccc(C2NC(C(=O)N3CCN(C(C)=O)CC3)Cc3c2[nH]c2ccc(Br)cc32)cc1 (centres unmarked) [Compound 244] | > 1 |
| Fc1ccc(C2NCCc3c2[nH]c2ccc(Br)cc32)c(F)c1 (centres unmarked) [Compound 161] | 0.04 to 0.2 |
| COC(=O)N1CCc2c([nH]c3ccc(Cl)cc23)C1c1ccc([N+](=O)[O-])cc1 (centres unmarked) [Compound 111] | 0.008 to 0.04 |
| Clc1ccc2[nH]c3c(c2c1)CCN(Cc1ccoc1)C3C1CCCCC1 (centres unmarked) [Compound 271] | > 1 |
| CCOC(=O)N1CCc2c([nH]c3ccc(Cl)cc23)C1c1cccc([N+](=O)[O-])c1 (centres unmarked) [Compound 139] | 0.04 to 0.2 |
| Clc1ccc2[nH]c3c(c2c1)CCNC3c1cc(Br)cc(Br)c1 (centres unmarked) [Compound 223] | 0.2 to 1 |
| CCCCCC1c2[nH]c3ccc(Cl)cc3c2CCN1Cc1ccccc1 (centres unmarked) [Compound 208] | 0.2 to 1 |
| COC(=O)N1CCc2c([nH]c3ccc(Cl)cc23)C1c1ccc(Br)cc1 (centres unmarked) [Compound 46] | 0.008 to 0.04 |
| CCOC(=O)N1CCc2c([nH]c3ccc(Br)cc23)C1c1ccc(F)c(F)c1 (centres unmarked) [Compound 78] | 0.008 to 0.04 |
| N#Cc1ccc(C2NCCc3c2[nH]c2ccc(Cl)cc32)cc1 (centres unmarked) [Compound 220] | 0.2 to 1 |
| Fc1ccc(F)c(C2NCCc3c2[nH]c2ccc(Br)cc32)c1 (centres unmarked) [Compound 178] | 0.2 to 1 |
| COC(=O)N1CCc2c([nH]c3ccc(Br)cc23)C1c1ccccc1 (centres unmarked) [Compound 65] | 0.008 to 0.04 |
| COCC(=O)N1CCc2c([nH]c3ccc(Br)cc23)C1c1ccc(C(C)C)cc1 (centres unmarked) [Compound 187] | 0.2 to 1 |
| Clc1ccc2[nH]c3c(c2c1)CCN(Cc1ccccc1)C3c1c[nH]c2ccc(Br)cc12 (centres unmarked) [Compound 273] | > 1 |
| Clc1ccc2[nH]c3c(c2c1)CCNC3c1cccc(Br)c1 (centres unmarked) [Compound 200] | 0.2 to 1 |
| COc1ccc(C2c3[nH]c4ccc(Cl)cc4c3CCN2C(=O)Nc2ccc(F)cc2)cc1 (centres unmarked) [Compound 179] | 0.2 to 1 |
| CCOC(=O)N1CCc2c([nH]c3ccc(Br)cc23)C1Cc1ccccc1 (centres unmarked) [Compound 211] | 0.2 to 1 |

Other lines, results leading:

| EC50 [µM] | Compound |
| --- | --- |
| 0.2 to 1 | COc1ccc(C2c3[nH]c4ccc(Cl)cc4c3CCN2C(=O)N2CCCC2)cc1 (centres unmarked) [Compound 333] |
| > 1 | CC(C)c1ccc(C2c3[nH]c4ccc(Cl)cc4c3CCN2C(=O)OCCF)cc1 (centres unmarked) [Compound 330] |
| 0.008 to 0.04 | COCCOC(=O)N1CCc2c([nH]c3ccc(Cl)cc23)C1c1ccc(OCCCn2ccnc2)cc1 (centres unmarked) [Compound 385] |
| > 1 | COc1ccc(C2NCCc3c2[nH]c2ccc(Cl)cc32)cc1OC (centres unmarked) [Compound 327] |
| < 0.008 | COC(=O)N1CCc2c([nH]c3ccc(Cl)cc23)C1c1ccc(OCCCn2ccnc2)cc1 (centres unmarked) [Compound 386] |
| 0.04 to 0.2 | CCCCCNC(=S)N1CCc2c([nH]c3ccc(Cl)cc23)C1c1ccc(C(C)C)cc1 (centres unmarked) [Compound 337] |
| > 1 | COc1ccc(C2c3[nH]c4ccc(Br)cc4c3CCN2c2ncccn2)cc1 (centres unmarked) [Compound 329] |
| > 1 | c1ccc(COc2ccc3[nH]c4c(c3c2)CCNC4c2cccnc2)cc1 (centres unmarked) [Compound 320] |
| 0.04 to 0.2 | COc1ccc(C2c3[nH]c4ccc(Cl)cc4c3CCN2C(=O)c2ccc(F)c(Cl)c2)cc1 (centres unmarked) [Compound 371] |

Same assay, conditions: Homo sapiens, HeLa cells, hypoxic conditions (1% O2)

| Compound | EC50 [µM] |
| --- | --- |
| CN1CCN(CCCCCCOc2ccc(C3c4[nH]c5ccc(Cl)cc5c4CCN3C(=O)Oc3ccc(Cl)cc3)cc2)CC1 (centres unmarked) [Compound 788] | 0.008 to 0.04 |
| CC(C)NCCCCOc1ccc(C2c3[nH]c4ccc(Cl)cc4c3CCN2C(=O)Oc2ccc(Cl)cc2)cc1 (centres unmarked) [Compound 700] | 0.008 to 0.04 |
| CC(=O)N1CCN(CC(O)COc2ccc(C3c4[nH]c5ccc(Cl)cc5c4CCN3C(=O)Oc3ccc(Cl)cc3)cc2)CC1 (centres unmarked) [Compound 415] | < 0.008 |

The next lines start with the values.

| EC50 [µM] | Compound |
| --- | --- |
| 0.04 to 0.2 | CCOC(=O)N1CCc2c([nH]c3ccc(Br)cc23)C1c1ccc(C(=O)N2CCN(C)CC2)cc1 (centres unmarked) [Compound 478] |
| 0.008 to 0.04 | COc1ccc(OC(=O)N2CCc3c([nH]c4ccc(Cl)cc34)C2c2ccc(S(=O)(=O)N3CCOCC3)cc2)cc1 (centres unmarked) [Compound 455] |
| < 0.008 | Cc1ccc(C2c3[nH]c4ccc(Br)cc4c3CCN2C(=O)Oc2ccc(F)cc2)cc1 (centres unmarked) [Compound 398] |
| 0.04 to 0.2 | CN(C)c1ncc(C2c3[nH]c4ccc(Cl)cc4c3CCN2C(=O)Oc2ccc(Cl)cc2)cn1 (centres unmarked) [Compound 475] |
| 0.008 to 0.04 | COCCOc1ccc(C2c3[nH]c4ccc(Cl)cc4c3CCN2C(=O)Oc2ccc(OC)cc2)cc1 (centres unmarked) [Compound 465] |
| < 0.008 | COCCOCCOc1ccc(C2c3[nH]c4ccc(Cl)cc4c3CCN2C(=O)Oc2ccc(Br)cc2)cc1 (centres unmarked) [Compound 680] |
| 0.008 to 0.04 | COCCOCCOc1ccc(C2c3[nH]c4ccc(Cl)cc4c3CCN2C(=O)Oc2ccc([N+](=O)[O-])cc2)cc1 (centres unmarked) [Compound 681] |
| > 1 | CCOC(=O)N1CCc2c([nH]c3ccc(Cl)cc23)C1c1ccc(C(=O)N(C)CCN(C)C)cc1 (centres unmarked) [Compound 563] |
| 0.008 to 0.04 | COC(=O)c1ccc(C2c3[nH]c4ccc(Cl)cc4c3CCN2C(=O)Oc2ccccc2Cl)cc1 (centres unmarked) [Compound 590] |
| 0.008 to 0.04 | COc1ccc(OC(=O)N2CCc3c([nH]c4ccc(Cl)cc34)C2c2cnc(N(C)C)nc2)cc1 (centres unmarked) [Compound 445] |
| > 1 | CCOC(=O)N1CCc2c([nH]c3ccc(Cl)cc23)C1c1ccc(C(=O)N2CCC(NC(C)=O)C2)cc1 (centres unmarked) [Compound 561] |
| 0.04 to 0.2 | O=C(Oc1ccc(Cl)cc1)N1CCc2c([nH]c3ccc(Cl)cc23)C1c1ccc(O)cc1 (centres unmarked) [Compound 577] |
| < 0.008 | COC(=O)c1ccc(C2c3[nH]c4ccc(Cl)cc4c3CCN2C(=O)Oc2ccc(Cl)cc2)cc1 (centres unmarked) [Compound 580] |
| 0.008 to 0.04 | CCOC(=O)N1CCc2c([nH]c3ccc(Cl)cc23)C1c1ccc(OCCCN2CCCC2)cc1 (centres unmarked) [Compound 449] |
| < 0.008 | O=C(Oc1ccccc1)N1CCc2c([nH]c3ccc(Cl)cc23)C1c1ccc(OCCCCl)cc1 (centres unmarked) [Compound 710] |
| 0.04 to 0.2 | CCOC(=O)N1CCc2c([nH]c3ccc(Cl)cc23)C1CC(C)c1ccccc1 (centres unmarked) [Compound 508] |
| 0.04 to 0.2 | CCOC(=O)N1CCc2c([nH]c3ccc(Cl)cc23)C1c1ccc(C(=O)NCCCN2CCCC2=O)cc1 (centres unmarked) [Compound 512] |
| < 0.008 | CC(C)(C)OC(=O)N1CCCC1C(=O)Oc1ccc(C2c3[nH]c4ccc(Cl)cc4c3CCN2C(=O)OC(C)(C)C)cc1 (centres unmarked) [Compound 424] |
| 0.008 to 0.04 | CNc1ncc(C2c3[nH]c4ccc(Br)cc4c3CCN2c2ncccn2)cn1 (centres unmarked) [Compound 443] |
| < 0.008 | O=C(Oc1ccc(Br)cc1)N1CCc2c([nH]c3ccc(Cl)cc23)C1c1ccc(OCC(O)CO)cc1 (centres unmarked) [Compound 630] |
| > 1 | CCOC(=O)N1CCc2c([nH]c3ccc(Br)cc23)C1c1ccc(C(=O)N2CCN(CCCN(C)C)CC2)cc1 (centres unmarked) [Compound 560] |
| < 0.008 | COCCOc1ccc(C2c3[nH]c4ccc(Cl)cc4c3CCN2C(=O)OCC(C)C)cc1 (centres unmarked) [Compound 407] |
| 0.008 to 0.04 | CC(=O)Oc1ccc(C2c3[nH]c4ccc(Cl)cc4c3CCN2C(=O)Oc2ccc(Cl)cc2)cc1 (centres unmarked) [Compound 463] |

Same assay, conditions: Homo sapiens, HeLa cells, hypoxic conditions (1% O2, 5% CO2)

| Compound | EC50 [µM] |
| --- | --- |
| COCCN(CCOC)CC(O)COc1ccc(C2c3[nH]c4ccc(Cl)cc4c3CCN2C(=O)Oc2ccc(Cl)cc2)cc1 (centres unmarked) [Compound 918] | < 0.008 |
| CC(=O)N1CCN(CCCOc2ccc(C3c4[nH]c5ccc(Cl)cc5c4CCN3C(=O)Oc3ccc(Cl)cc3)cc2)CC1 (centres unmarked) [Compound 903] | < 0.008 |

The remaining lines, values ahead:

| EC50 [µM] | Compound |
| --- | --- |
| < 0.008 | O=C(Oc1ccc(F)cc1)N1CCc2c([nH]c3ccc(Cl)cc23)C1c1ccc(OCC(O)Cn2ccnc2)cc1 (centres unmarked) [Compound 922] |
| < 0.008 | O=C(Oc1ccc(F)cc1)N1CCc2c([nH]c3ccc(Cl)cc23)C1c1ccc(OCCCn2ccnc2)cc1 (centres unmarked) [Compound 889] |
| < 0.008 | O=C(Oc1ccc(Cl)cc1)N1CCc2c([nH]c3ccc(Cl)cc23)C1c1ccc(OCCCn2ccnc2)cc1 (centres unmarked) [Compound 917] |
